Molecules are shown by their SMILES.

Assay [1] deals with HepG2. As to the kind of experiment: Antiproliferative activity against human HepG2 cells after 48 hrs by MTT assay. The class given is functional, cell-based. Conditions: HepG2, 48 h.
The subject of assay [2] is MCF7. As to the kind of experiment: Antiproliferative activity against human MCF7 cells after 48 hrs by MTT assay. It is filed as functional, cell-based. Conditions: MCF7, 48 h.
Assay [3] relates to HepG2. As to the kind of experiment: Induction of apoptosis in human HepG2 cells assessed as live cells at 0.5 uM after 48 hrs by Annexin-V FITC/propidium iodide staining based flow cytometry (reference value: 86.49%). It is filed as functional.
Assay [4] deals with HepG2. As to the kind of experiment: Induction of apoptosis in human HepG2 cells assessed as early apoptotic cells at 0.5 uM after 48 hrs by Annexin-V FITC/propidium iodide staining based flow cytometry (reference value: 6.62%). The class given is functional.
In assay [5] the test system is HepG2. Kind of assay: Induction of apoptosis in human HepG2 cells assessed as late apoptotic cells at 0.5 uM after 48 hrs by Annexin-V FITC/propidium iodide staining based flow cytometry (reference value: 5.53%). It is filed as functional.
For assay [6], the system named is HepG2. Kind of assay: Induction of apoptosis in human HepG2 cells assessed as necrotic cells at 0.5 uM after 48 hrs by Annexin-V FITC/propidium iodide staining based flow cytometry (reference value: 1.36%). The class given is functional.
Assay [7] has as its system HepG2. Kind of assay: Potency index, ratio of sunitinib IC50 to compound IC50 for human HepG2 cells. The class given is functional.
Assay [8] deals with MCF7. Kind of assay: Potency index, ratio of sunitinib IC50 to compound IC50 for human MCF7 cells. It is filed as functional.

As for `COc1ccc2cc1Oc1ccc(cc1)C[C@H]1c3cc(c(OC)cc3CCN1C)Oc1c(OC(=O)c3ccc(Cl)cc3)c(OC)cc3c1[C@H](C2)N(C)CC3`, the IC50 in assay [1] was found to be 2.12 µM; in assay [2], 3.79 µM.
For `COc1ccc2cc1Oc1ccc(cc1)C[C@H]1c3cc(c(OC)cc3CCN1C)Oc1c(OC(=O)c3ccccc3)c(OC)cc3c1[C@H](C2)N(C)CC3` the same measures were 3.69 µM and 6.34 µM.
For `COc1ccc2cc1Oc1ccc(cc1)C[C@H]1c3cc(c(OC)cc3CC[N+]1(C)CC(=O)[O-])Oc1c(OC)c(OC)cc3c1[C@H](C2)N(C)CC3` (stereo not given in full) the same measures were 9.98 µM and 11.6 µM.
For `COc1ccc2cc1Oc1ccc(cc1)C[C@H]1c3cc(c(OC)cc3CCN1C)Oc1c(OC(=O)c3cccc([N+](=O)[O-])c3)c(OC)cc3c1[C@H](C2)N(C)CC3` the same measures were 1.69 µM and 1.99 µM.
On to `COc1ccc2cc1Oc1ccc(cc1)C[C@H]1c3cc(c(OC)cc3CCN1C)Oc1c(OC(=O)c3ccccc3Cl)c(OC)cc3c1[C@H](C2)N(C)CC3`, for which the IC50 in assay [1] was determined as 1.32 µM; in assay [2] it was 3.51 µM.
For `CCOc1ccc(C(=O)Oc2c(OC)cc3c4c2Oc2cc5c(cc2OC)CCN(C)[C@H]5Cc2ccc(cc2)Oc2cc(ccc2OC)C[C@@H]4N(C)CC3)cc1` the same measures were 0.65 µM and 4.54 µM.
For `COc1ccc2cc1Oc1ccc(cc1)C[C@H]1c3cc(c(OC)cc3CC[N+]1(C)CC(=O)[O-])Oc1c(OC)c(OC)cc3c1[C@H](C2)[N+](C)(CC(=O)[O-])CC3` (stereo not given in full) the same measures were 10 µM and 14.6 µM.
For `COc1ccc2cc1Oc1ccc(cc1)C[C@H]1c3cc(c(OC)cc3CCN1C)Oc1c(OC(C)=O)c(OC)cc3c1[C@H](C2)N(C)CC3` the same measures were 5.24 µM and 6.99 µM.
Take `COc1ccc2cc1Oc1ccc(cc1)C[C@H]1c3cc(c(OC)cc3CCN1C)Oc1c(OC(=O)c3ccccc3OC(C)=O)c(OC)cc3c1[C@H](C2)N(C)CC3`: the IC50 in assay [1] was found to be 1.78 µM; in assay [2] it was 5.12 µM.
In the case of `CCCCOc1c(OC)cc2c3c1Oc1cc4c(cc1OC)CCN(C)[C@H]4Cc1ccc(cc1)Oc1cc(ccc1OC)C[C@@H]3N(C)CC2`, the figures for the IC50 in assay [1] and in assay [2] were 3.79 µM and 7.34 µM, respectively.
For `COc1ccc2cc1Oc1ccc(cc1)C[C@H]1c3cc(c(OC)cc3CCN1C)Oc1c(OC(C)C)c(OC)cc3c1[C@H](C2)N(C)CC3` the same measures were 4.92 µM and 7.98 µM.
For `CCOC(=O)C(C)[N+]1(C)CCc2cc(OC)c3cc2[C@@H]1Cc1ccc(cc1)Oc1cc(ccc1OC)C[C@H]1c2c(cc(OC)c(OC)c2O3)CCN1C` (stereo not given in full) the same measures were 13.1 µM and 10.1 µM.
For `COc1ccc2cc1Oc1ccc(cc1)C[C@H]1c3cc(c(OC)cc3CCN1C)Oc1c(OC(=O)c3cccnc3)c(OC)cc3c1[C@H](C2)N(C)CC3` the same measures were 1.98 µM and 4.17 µM.
Take `CCC(Br)C(=O)Oc1c(OC)cc2c3c1Oc1cc4c(cc1OC)CCN(C)[C@H]4Cc1ccc(cc1)Oc1cc(ccc1OC)C[C@@H]3N(C)CC2` (stereo not given in full): the figures for the IC50 in assay [1] and in assay [2] were 3.88 µM and 7.02 µM, respectively.
For `COc1ccc2cc1Oc1ccc(cc1)C[C@H]1c3cc(c(OC)cc3CCN1C)Oc1c(OC(=O)c3cccc(Cl)c3)c(OC)cc3c1[C@H](C2)N(C)CC3` the same measures were 1.99 µM and 2.98 µM.
For the compound `COc1ccc2cc1Oc1ccc(cc1)C[C@H]1c3cc(c(OC)cc3CCN1C)Oc1c(OC(=O)c3ccccc3[N+](=O)[O-])c(OC)cc3c1[C@H](C2)N(C)CC3`, the IC50 in assay [1] is 2.95 µM; in assay [2], 2.57 µM.
For `CCOc1c(OC)cc2c3c1Oc1cc4c(cc1OC)CCN(C)[C@H]4Cc1ccc(cc1)Oc1cc(ccc1OC)C[C@@H]3N(C)CC2` the same measures were 5.52 µM and 8.55 µM.
For `COc1ccc2cc1Oc1ccc(cc1)C[C@H]1c3cc(c(OC)cc3CCN1C)Oc1c(OC(=O)CCl)c(OC)cc3c1[C@H](C2)N(C)CC3` the same measures were 4.12 µM and 7.13 µM.
For `COc1ccc2cc1Oc1ccc(cc1)C[C@H]1c3cc(c(OC)cc3CCN1C)Oc1c(OC(=O)c3ccc([N+](=O)[O-])cc3)c(OC)cc3c1[C@H](C2)N(C)CC3` the same measures were 2.11 µM and 2.99 µM.
In the case of `COc1ccc2cc1Oc1ccc(cc1)C[C@H]1c3cc(c(OC)cc3CCN1C)Oc1c(OC(=O)c3cccnc3Cl)c(OC)cc3c1[C@H](C2)N(C)CC3`, the IC50 in assay [1] stood at 2.79 µM; in assay [2], 4.01 µM.
For `C/C=C/C=C/C(=O)Oc1c(OC)cc2c3c1Oc1cc4c(cc1OC)CCN(C)[C@H]4Cc1ccc(cc1)Oc1cc(ccc1OC)C[C@@H]3N(C)CC2` the same measures were 4 µM and 6.56 µM.
For the compound `COc1ccc2cc1Oc1ccc(cc1)C[C@H]1c3cc(c(OC)cc3CCN1C)Oc1c(OCc3ccccc3)c(OC)cc3c1[C@H](C2)N(C)CC3`, the results for the IC50 in assay [1] and in assay [2] were 0.55 µM and 3.45 µM, respectively. For the same compound, the Activity is listed as 55.6% in assay [3], 10.47% in assay [4], 28.16% in assay [5] and 5.77% in assay [6]. Moreover, the entries for the “Ratio IC50” value in assay [7] and in assay [8] were 29.2 and 7.37, respectively.
With `CCOC(=O)C(CC)[N+]1(C)CCc2cc(OC)c3cc2[C@@H]1Cc1ccc(cc1)Oc1cc(ccc1OC)C[C@H]1c2c(cc(OC)c(OC)c2O3)CCN1C` (stereo not given in full), the IC50 in assay [1] is 15.7 µM; in assay [2] it was 16.6 µM.
For `COc1ccc2cc1Oc1ccc(cc1)C[C@H]1c3cc(c(OC)cc3CCN1C)Oc1c(OC(=O)/C=C/c3ccccc3)c(OC)cc3c1[C@H](C2)N(C)CC3` the same measures were 3.59 µM and 6.12 µM.
For `COc1ccc2cc1Oc1ccc(cc1)C[C@H]1c3cc(c(OC)cc3CC[N+]1(C)CCO)Oc1c(OC)c(OC)cc3c1[C@H](C2)[N+](C)(CCO)CC3` (stereo not given in full) the same measures were 9.67 µM and 9.32 µM.
Regarding `COc1ccc2cc1Oc1ccc(cc1)C[C@H]1c3cc(c(OC)cc3CCN1C)Oc1c(OC)c(OC)cc3c1[C@H](C2)N(C)CC3` [FANCHININ], the IC50 in assay [1] amounted to 6.82 µM; in assay [2], 8.62 µM.
Regarding `COc1ccc2cc1Oc1ccc(cc1)C[C@H]1c3cc(c(OC)cc3CCN1C)Oc1c(O)c(OC)cc3c1[C@H](C2)N(C)CC3` [FANGCHINOLINE], the IC50 in assay [1] stood at 9.08 µM; in assay [2], 10.1 µM.

For the origin of these results see ChEMBL document CHEMBL4041545, “Design, synthesis and biological activities of tetrandrine and fangchinoline derivatives as antitumer agents” (Bioorg Med Chem Lett, 2017).
